Laboratory results from article PMC6894070, “The Plasmodium falciparum Hsp70-x chaperone assists the heat stress response of the malaria parasite” (The FASEB Journal, 2019).

Assays:
Hsc70 = molecular target: T1, Hsc70 (Homo sapiens, UniProt P11142); conditions: 5 uM chaperone, 1 mM ATP, Mg2+, pH 8, 25 C
T1 construct: gene HSPA8

PfHsp70-x [1] = molecular target: T2, PfHsp70-x (Plasmodium falciparum, UniProt A0A143ZXN1); assay: MESG-coupled ATPase assay; format: biochemical; conditions: 5 uM chaperone alone, 1 mM ATP, pH 8, 25 C
T2 construct: gene PF3D7_0831700; aa 25-679, export signal peptide excluded; codon-optimized synthetic DNA; N-terminal His6 tag cut by 3C protease; expressed in E. coli Rosetta2(DE3)

PfHsp70-x [2] = molecular target: T2, PfHsp70-x; assay: MESG-coupled ATPase assay; format: biochemical; conditions: 5 uM chaperone alone, 1 mM ATP, pH 8, 25 C; remark: listed apart in the source

T1 sequence (P11142 whole entry): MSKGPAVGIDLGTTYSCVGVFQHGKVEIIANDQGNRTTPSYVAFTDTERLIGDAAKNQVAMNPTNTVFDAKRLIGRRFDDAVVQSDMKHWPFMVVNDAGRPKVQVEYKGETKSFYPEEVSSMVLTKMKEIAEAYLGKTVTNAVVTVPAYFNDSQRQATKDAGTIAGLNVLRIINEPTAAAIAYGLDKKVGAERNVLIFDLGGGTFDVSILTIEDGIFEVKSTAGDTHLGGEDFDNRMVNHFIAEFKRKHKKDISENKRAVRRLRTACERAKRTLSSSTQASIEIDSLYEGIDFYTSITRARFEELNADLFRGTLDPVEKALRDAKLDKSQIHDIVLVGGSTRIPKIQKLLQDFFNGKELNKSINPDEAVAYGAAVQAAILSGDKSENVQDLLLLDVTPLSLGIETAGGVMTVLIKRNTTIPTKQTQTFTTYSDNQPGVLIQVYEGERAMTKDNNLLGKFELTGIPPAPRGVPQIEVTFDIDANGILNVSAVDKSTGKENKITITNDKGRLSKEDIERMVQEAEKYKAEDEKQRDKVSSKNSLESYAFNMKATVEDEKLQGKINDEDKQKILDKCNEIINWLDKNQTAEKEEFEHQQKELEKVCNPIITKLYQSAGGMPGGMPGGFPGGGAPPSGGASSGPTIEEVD

SMILES: Nc1ncnc2c1ncn2[C@@H]1O[C@H](COP(=O)(O)OP(=O)(O)OP(=O)(O)O)[C@@H](O)[C@H]1O [ATP]
- MESG-coupled ATPase assay (Hsc70): fold changes in ATP hydrolysis activities of PfHsp70-x (A, B) or human Hsc70 (C, D)

SMILES: CC1(C)OC2=C(CC1Br)C(=O)C(=O)c1ccccc12 (stereo not drawn) [BBL, bromo-β-lapachona]
- apparent half-maximal inhibitory concentration (PfHsp70-x [1]): BBL inhibited PfHsp70-x in our ATPase assays with low micromolar apparent half-maximal inhibitory concentration

SMILES: CN(C)c1ccc2nc3ccc(=[N+](C)C)cc-3sc2c1 [methylene blue]
- half-maximal inhibitory concentration (PfHsp70-x [2]): methylene blue inhibits both basal and stimulated PfHsp70-x activity
